Results from patent US10464947B2 (Incyte Corporation, priority 2013, dated 2019).
pIC50: −log10 of the molar value. Counter-ions that a name gives are not always drawn.

What follows are compounds tested on KMS.12.BM cells (assay: KMS.12.BM Cell Viability Assay (Example B1)). Conditions: Homo sapiens, 72 h, 3 days, Cell Titer-GLO, read-out: KMS cellular IC50.
Format: cell-based, human
Method: KMS.12.BM cell line (human myeloma) was purchased from JCRB (Osaka, Japan) and maintained in RPMI with 10% FBS culture medium. To measure the cytotoxic activity of the compounds through ATP quantitation, the KMS.12.BM cells are plated in the RPMI culture medium at 5000 cells/well/per 100 μL into a 96-well polystyrene clear black tissue culture plate (Greiner-bio-one through VWR, NJ), in the presence or absence of a concentration range of test compounds. After 3 days, […] Cell Titer-GLO Luminescent (Promega, Madison, Wis.) cell culture agent is added to each well for 10 min. at room temperature to stabilize the luminescent signal. This determines the number of viable cells in culture based on quantitation of the ATP present, which signals the presence of metabolically active cells.

SMILES | pIC50
Cc1noc(C)c1-c1ccc2[nH]c(=O)n3c2c1CCC3c1ccccn1 (stereo not drawn) [Example 123, 7-(3,5-Dimethylisoxazol-4-yl)-4-pyridin-2-yl-5,6-dihydro-4H-imidazo[4,5,1-ij]quinolin-2(1H)-one trifluoroacetate] | > 6.00
Cc1noc(C)c1-c1ccc2nc(N(C)C)n3c2c1OCC3c1ccccn1 (stereo not drawn) [Example 187, 7-(3,5-dimethylisoxazol-4-yl)-N,N-dimethyl-4-pyridin-2-yl-4,5-dihydroimidazo[1,5,4-de][1,4]benzoxazin-2-amine] | > 6.00
Cc1noc(C)c1-c1ccc2nc(N3CC(O)C3)n3c2c1OC[C@@H]3c1ccccn1 [Example 165, 1-[(4S)-7-(3,5-dimethylisoxazol-4-yl)-4-pyridin-2-yl-4,5-dihydroimidazo[1,5,4-de][1,4]benzoxazin-2-yl]azetidin-3-ol] | > 6.00
Cc1noc(C)c1-c1ccc2nc(N3CCN(C)CC3)n3c2c1OC[C@@H]3c1ccccn1 [Example 163, (4S)-7-(3,5-dimethylisoxazol-4-yl)-2-(4-methylpiperazin-1-yl)-4-pyridin-2-yl-4,5-dihydroimidazo[1,5,4-de][1,4]benzoxazine] | > 6.00
Cc1noc(C)c1-c1ccc2ncn3c2c1OCC3c1ccccc1 (stereo not drawn) [Example 39, 7-(3,5-Dimethylisoxazol-4-yl)-4-phenyl-4,5-dihydroimidazo[1,5,4-de][1,4]benzoxazine] | > 6.00
CC(=O)N(C)[C@@H]1CCN(c2nc3ccc(-c4c(C)noc4C)c4c3n2[C@@H](c2ccccn2)CO4)C1 [Example 222, N-{(3R)-1-[(4S)-7-(3,5-dimethylisoxazol-4-yl)-4-pyridin-2-yl-4,5-dihydroimidazo[1,5,4-de][1,4]benzoxazin-2-yl]pyrrolidin-3-yl}-N-methylacetamide] | > 6.00
Cc1noc(C)c1-c1cc(-c2ccccc2)c2[nH]c(=O)n3c2c1OCC3c1ccccc1 (stereo not drawn) [Example 43, 7-(3,5-Dimethylisoxazol-4-yl)-4,9-diphenyl-4,5-dihydroimidazo[1,5,4-de][1,4]benzoxazin-2(1H)-one] | > 6.00
Cc1noc(C)c1-c1ccc2nc(N3CCCC(O)C3)n3c2c1OCC3c1ccccc1 (stereo not drawn) [Example 58, 1-[7-(3,5-Dimethylisoxazol-4-yl)-4-phenyl-4,5-dihydroimidazo[1,5,4-de][1,4]benzoxazin-2-yl]piperidin-3-ol] | > 6.00
Cc1noc(C)c1-c1ccc2nc(C(=O)OC(C)(C)C)n3c2c1OC[C@@H]3c1ccccn1 [Example 93, tert-Butyl (4S)-7-(3,5-dimethylisoxazol-4-yl)-4-pyridin-2-yl-4,5-dihydroimidazo[1,5,4-de][1,4]benzoxazine-2-carboxylate] | > 6.00
COCC(=O)N[C@@H]1CCN(c2nc3ccc(-c4c(C)noc4C)c4c3n2[C@@H](c2ccccn2)CO4)C1 [Example 205, N-{(3R)-1-[(4S)-7-(3,5-dimethylisoxazol-4-yl)-4-pyridin-2-yl-4,5-dihydroimidazo[1,5,4-de][1,4]benzoxazin-2-yl]pyrrolidin-3-yl}-2-methoxyacetamide] | > 6.00
Cc1noc(C)c1-c1ccc2nc(N3CCCC3)n3c2c1OC[C@@H]3c1ccccn1 [Example 162, (4S)-7-(3,5-dimethylisoxazol-4-yl)-4-pyridin-2-yl-2-pyrrolidin-1-yl-4,5-dihydroimidazo[1,5,4-de][1,4]benzoxazine] | > 6.00
Cc1noc(C)c1-c1ccc2nc(N3CC[C@@H](NC(=O)N4CCOCC4)C3)n3c2c1OC[C@@H]3c1ccccn1 [Example 153, N-{(3R)-1-[(4S)-7-(3,5-Dimethylisoxazol-4-yl)-4-pyridin-2-yl-4,5-dihydroimidazo[1,5,4-de][1,4]benzoxazin-2-yl]pyrrolidin-3-yl}morpholine-4-carboxamide] | > 6.00
Cc1noc(C)c1-c1ccc2[nH]c(=O)n3c2c1OCC3c1ccc(F)cn1 (stereo not drawn) [Example 19, 7-(3,5-Dimethylisoxazol-4-yl)-4-(5-fluoropyridin-2-yl)-4,5-dihydroimidazo[1,5,4-de][1,4]benzoxazin-2(1H)-one] | > 6.00
Cc1noc(C)c1-c1ccc2nc(N3CCNC(=O)C3C)n3c2c1OC[C@@H]3c1ccccn1 (stereo partly drawn) [Example 195, 4-[(4S)-7-(3,5-dimethylisoxazol-4-yl)-4-pyridin-2-yl-4,5-dihydroimidazo[1,5,4-de][1,4]benzoxazin-2-yl]-3-methylpiperazin-2-one] | > 6.00
Cc1noc(C)c1-c1ccc2nc(N3CC[C@@H](NC(=O)C(F)(F)F)C3)n3c2c1OC[C@@H]3c1ccccn1 [Example 203, N-{(3R)-1-[(4S)-7-(3,5-dimethylisoxazol-4-yl)-4-pyridin-2-yl-4,5-dihydroimidazo[1,5,4-de][1,4]benzoxazin-2-yl]pyrrolidin-3-yl}-2,2,2-trifluoroacetamide] | > 6.00
Cc1noc(C)c1-c1ccc2nc(N3CCC(CO)CC3)n3c2c1OC[C@@H]3c1ccccn1 [Example 176, {1-[(4S)-7-(3,5-dimethylisoxazol-4-yl)-4-pyridin-2-yl-4,5-dihydroimidazo[1,5,4-de][1,4]benzoxazin-2-yl]piperidin-4-yl}methanol] | > 6.00
Cc1noc(C)c1-c1ccc2nc(N3CCN(CC4CC4)CC3)n3c2c1OC[C@@H]3c1ccccn1 [Example 183, (4S)-2-[4-(cyclopropylmethyl)piperazin-1-yl]-7-(3,5-dimethylisoxazol-4-yl)-4-pyridin-2-yl-4,5-dihydroimidazo[1,5,4-de][1,4]benzoxazine] | > 6.00
Cc1n[nH]cc1-c1ccc2[nH]c(=O)n3c2c1OCC3c1ccccc1 (stereo not drawn) [Example 12, 7-(3-Methyl-1H-pyrazol-4-yl)-4-phenyl-4,5-dihydroimidazo[1,5,4-de][1,4]benzoxazin-2(1H)-one] | 5.00 to 6.00
COC(=O)c1ncccc1C1COc2c(-c3c(C)noc3C)ccc3[nH]c(=O)n1c23 (racemic) [Example 132, Methyl 3-[7-(3,5-dimethylisoxazol-4-yl)-2-oxo-1,2,4,5-tetrahydroimidazo[1,5,4-de][1,4]benzoxazin-4-yl]pyridine-2-carboxylate] | > 6.00
Cc1noc(C)c1-c1ccc2nc(N3CCN(Cc4ccccc4)CC3)n3c2c1OC[C@@H]3c1ccccn1 [Example 179, (4S)-2-(4-benzylpiperazin-1-yl)-7-(3,5-dimethylisoxazol-4-yl)-4-pyridin-2-yl-4,5-dihydroimidazo[1,5,4-de][1,4]benzoxazine] | > 6.00
Cc1noc(C)c1-c1ccc2nc(N3CCN(CC(=O)N(C)C)CC3)n3c2c1OC[C@@H]3c1ccccn1 [Example 151, 2-{4-[(4S)-7-(3,5-Dimethylisoxazol-4-yl)-4-pyridin-2-yl-4,5-dihydroimidazo[1,5,4-de][1,4]benzoxazin-2-yl]piperazin-1-yl}-N,N-dimethylacetamide] | > 6.00
Cc1noc(C)c1-c1cc(C#N)c2[nH]c(=O)n3c2c1OCC3c1ccccc1 (stereo not drawn) [Example 42, 7-(3,5-Dimethylisoxazol-4-yl)-2-oxo-4-phenyl-1,2,4,5-tetrahydroimidazo[1,5,4-de][1,4]benzoxazine-9-carbonitrile] | > 6.00
CC(=O)N[C@@H]1CCN(c2nc3ccc(-c4c(C)noc4C)c4c3n2[C@@H](c2ccccn2)CO4)C1 [Example 201A, N-{(3R)-1-[(4S)-7-(3,5-dimethylisoxazol-4-yl)-4-pyridin-2-yl-4,5-dihydroimidazo[1,5,4-de][1,4]benzoxazin-2-yl]pyrrolidin-3-yl}acetamide] | > 6.00
CCC(=O)N1CCN(c2nc3ccc(-c4c(C)noc4C)c4c3n2[C@@H](c2ccccn2)CO4)CC1 [Example 225, (4S)-7-(3,5-dimethylisoxazol-4-yl)-2-(4-propionylpiperazin-1-yl)-4-pyridin-2-yl-4,5-dihydroimidazo[1,5,4-de][1,4]benzoxazine] | > 6.00
Cc1noc(C)c1-c1cc(F)c2nc(N(C)C)n3c2c1OCC3c1cccnc1 (stereo not drawn) [Example 156, 7-(3,5-Dimethylisoxazol-4-yl)-9-fluoro-N,N-dimethyl-4-pyridin-3-yl-4,5-dihydroimidazo[1,5,4-de][1,4]benzoxazin-2-amine] | > 6.00
Cc1noc(C)c1-c1ccc2nc(N3CCC(O)CC3)n3c2c1OC[C@@H]3c1ccccn1 [Example 169, 1-[(4S)-7-(3,5-dimethylisoxazol-4-yl)-4-pyridin-2-yl-4,5-dihydroimidazo[1,5,4-de][1,4]benzoxazin-2-yl]piperidin-4-ol] | > 6.00
Cc1noc(C)c1-c1ccc2nc(N3CC[C@H](NC(=O)OC(C)(C)C)C3)n3c2c1OC[C@@H]3c1ccccn1 [Example 182B, tert-butyl {(3S)-1-[(4S)-7-(3,5-dimethylisoxazol-4-yl)-4-pyridin-2-yl-4,5-dihydroimidazo[1,5,4-de][1,4]benzoxazin-2-yl]pyrrolidin-3-yl}carbamate] | > 6.00
CCS(=O)(=O)N1CCN(c2nc3ccc(-c4c(C)noc4C)c4c3n2[C@@H](c2ccccn2)CO4)CC1 [Example 226, (4S)-7-(3,5-dimethylisoxazol-4-yl)-2-[4-(ethylsulfonyl)piperazin-1-yl]-4-pyridin-2-yl-4,5-dihydroimidazo[1,5,4-de][1,4]benzoxazine] | > 6.00
CCCS(=O)(=O)N[C@@H]1CCN(c2nc3ccc(-c4c(C)noc4C)c4c3n2[C@@H](c2ccccn2)CO4)C1 [Example 215, N-{(3R)-1-[(4S)-7-(3,5-dimethylisoxazol-4-yl)-4-pyridin-2-yl-4,5-dihydroimidazo[1,5,4-de][1,4]benzoxazin-2-yl]pyrrolidin-3-yl}propane-1-sulfonamide] | > 6.00

Same assay, conditions: Homo sapiens, KMS-12-BM, 72 h, 3 days, Cell Titer-GLO, read-out: KMS cellular IC50

SMILES | pIC50
CCOC(=O)C1Oc2c(-c3c(C)noc3C)ccc3[nH]c(=O)n(c23)C1c1ccccn1 (stereo not drawn) [Example 20, Ethyl 7-(3,5-dimethylisoxazol-4-yl)-2-oxo-4-pyridin-2-yl-1,2,4,5-tetrahydroimidazo[1,5,4-de][1,4]benzoxazine-5-carboxylate] | > 6.00
